The source of these data is patent publication US12016864B2, “LOX enzyme inhibiting methods and compositions” (ANOVIA BIOSCIENCES, INC., priority 2021, dated 2024).

Common to all, as to format: biochemical
The target of test [1] is T1, Recombinant human LOXL3 (lysyl oxidase like 3) (Homo sapiens, UniProt P58215).
T1 construct: purchased R&D systems
T1 sequence (P58215 26-753): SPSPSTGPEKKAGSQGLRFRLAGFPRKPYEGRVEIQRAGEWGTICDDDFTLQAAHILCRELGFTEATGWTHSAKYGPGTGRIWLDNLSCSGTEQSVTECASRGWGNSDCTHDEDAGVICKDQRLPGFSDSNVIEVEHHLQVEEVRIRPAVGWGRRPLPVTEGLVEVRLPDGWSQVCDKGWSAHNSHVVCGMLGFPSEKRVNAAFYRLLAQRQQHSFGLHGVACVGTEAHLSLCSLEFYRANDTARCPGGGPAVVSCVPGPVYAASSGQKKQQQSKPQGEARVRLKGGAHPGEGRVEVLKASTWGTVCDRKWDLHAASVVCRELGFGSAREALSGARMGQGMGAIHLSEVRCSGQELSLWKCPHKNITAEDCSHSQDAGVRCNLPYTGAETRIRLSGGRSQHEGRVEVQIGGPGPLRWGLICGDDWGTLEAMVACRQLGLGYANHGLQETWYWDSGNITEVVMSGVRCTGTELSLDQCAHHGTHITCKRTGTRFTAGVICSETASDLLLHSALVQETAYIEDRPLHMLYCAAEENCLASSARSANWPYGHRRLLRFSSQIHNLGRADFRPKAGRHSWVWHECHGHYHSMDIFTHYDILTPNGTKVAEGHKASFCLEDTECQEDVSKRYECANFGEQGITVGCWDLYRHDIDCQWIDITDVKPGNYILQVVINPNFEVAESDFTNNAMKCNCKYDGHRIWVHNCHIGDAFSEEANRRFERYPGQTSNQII
Put plainly: LOXL3 inhibition assay, fluorometric (cadaverine / HRP / Amplex Red). The following applies: recombinant human LOXL3 150 nM; 30 min preincubation at 37° C.; 1 mM cadaverine; read-out: Activity Range LOXL3. How it is done:
(§1) The ability of compounds to inhibit one or more of the lysyl oxidases LOXL2 and/or LOXL3 was determined using a fluorometric assay. This assay measures the activity of lysyl oxidases by coupling the reaction with horseradish peroxidase-catalyzed […]. The activity assay protocol uses cadaverine as substrate that releases hydrogen peroxide upon transformation by the specific LOX family enzyme present in the sample. Hydrogen peroxide is in turn detected using a red fluorescence substrate for HRP-coupled reactions (Amplex Red Enzyme Assays, Thermo Scientific Fisher). This leads to increase in fluorescence that can be easily detected at Ex/Em=540/590 nm in a fluorescence microplate reader.
(§2) Recombinant human LOXL2 (lysyl oxidase like 2) and recombinant human LOXL3 (lysyl oxidase like 3) were purchased from R&D systems and assays were performed in 1.2 M urea, 50 mM sodium borate buffer pH 8.0, and 10 mM CaCl.
(§3) 5 μl of freshly prepared reaction buffer were delivered to reaction wells. Compounds were resuspended in 100% DMSO at 10 mM and delivered into buffer using acoustic technology (Echo550; nanoliter range). A 3× solution of LOXL2 or LOXL3 in reaction buffer was prepared (“enzyme solution”) and 5 μL of enzyme solution was added into the reaction wells. Buffer only was added to column 1 for no protein control. Reactions were incubated for 30 minutes at 37° C. A 3× mixture of cadaverine, Amplex Red, and HRP (“Substrate/Detection Mix) was prepared and subsequently 5 μL of the mixture added to each reaction well. Progress of reactions was monitored for 60 minutes at 37° C. using Clariostar plate reader (ex 530-12, ems 600-40). For all activity assays, pan-LOX inhibitor CCT365623 (Tang et al, 2017) and LOXL2/LOXL3 inhibitor PAT-1251 (PharmaKea) were included as standards.
(§4) For the data analysis, the slope of the linear portion of the progress curve was calculated using Clariostar software. Typical analysis interval was between 8-30 min, but varied between experiments. The background-subtracted signals (No protein wells are considered as background) were converted to % activity relative to DMSO controls. Data was analyzed using GraphPad Prism 4 with “sigmoidal dose-response (variable slope)”; 4 parameters with Hill Slope. Constraints: Bottom=Constant equal to 0. Top=Must be less than 120.

For test [2], the target named is T2, Recombinant human LOXL2 (lysyl oxidase like 2) (Homo sapiens, UniProt Q9Y4K0).
T2 construct: purchased R&D systems
T2 sequence (Q9Y4K0 26-774): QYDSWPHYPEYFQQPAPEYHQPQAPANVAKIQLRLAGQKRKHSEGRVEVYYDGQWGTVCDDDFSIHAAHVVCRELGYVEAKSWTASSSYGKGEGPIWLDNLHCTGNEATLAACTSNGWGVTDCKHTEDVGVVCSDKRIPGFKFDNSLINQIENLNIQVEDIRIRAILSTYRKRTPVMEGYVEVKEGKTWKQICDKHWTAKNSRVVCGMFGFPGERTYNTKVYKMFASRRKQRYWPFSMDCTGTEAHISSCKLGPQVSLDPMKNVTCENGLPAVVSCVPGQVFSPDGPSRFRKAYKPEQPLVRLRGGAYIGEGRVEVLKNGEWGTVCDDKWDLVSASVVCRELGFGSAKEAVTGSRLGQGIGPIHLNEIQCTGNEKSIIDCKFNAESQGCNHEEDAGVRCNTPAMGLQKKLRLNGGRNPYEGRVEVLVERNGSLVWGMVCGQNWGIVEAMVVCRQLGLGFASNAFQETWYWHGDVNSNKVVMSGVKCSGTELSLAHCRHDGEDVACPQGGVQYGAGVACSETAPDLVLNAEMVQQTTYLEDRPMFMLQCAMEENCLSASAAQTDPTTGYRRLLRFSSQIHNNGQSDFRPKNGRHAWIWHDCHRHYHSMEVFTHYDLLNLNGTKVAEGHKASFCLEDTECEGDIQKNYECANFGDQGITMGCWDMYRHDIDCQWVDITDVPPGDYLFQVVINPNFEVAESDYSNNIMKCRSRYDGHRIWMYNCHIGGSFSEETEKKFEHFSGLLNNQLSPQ
Put plainly: LOXL2 inhibition assay, fluorometric (cadaverine / HRP / Amplex Red). The following applies: recombinant human LOXL2 130 nM; 30 min preincubation at 37° C.; 2.5 mM cadaverine; read-out: Activity Range LOXL2. How it is done: as §1, §2, §3, §4

The target in test [3] is T3, Bovine lysyl oxidase (LOX) (Bos taurus, UniProt P33072).
T3 construct: from tissue; host or cells: adult bovine tendon
T3 sequence (P33072 170-418): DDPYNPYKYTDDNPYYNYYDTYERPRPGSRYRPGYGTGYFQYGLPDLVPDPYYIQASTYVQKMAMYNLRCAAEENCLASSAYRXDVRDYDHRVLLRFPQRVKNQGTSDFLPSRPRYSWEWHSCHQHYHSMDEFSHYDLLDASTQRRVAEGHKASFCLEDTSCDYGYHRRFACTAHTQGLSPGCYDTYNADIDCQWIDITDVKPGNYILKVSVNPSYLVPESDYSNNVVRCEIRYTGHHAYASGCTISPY
As to the kind of experiment: LOX inhibition assay, fluorometric (cadaverine / HRP / Amplex Red). The conditions noted are these: LOX extracted from bovine tendon; 30 min preincubation at 37° C.; 5 mM cadaverine; read-out: Activity Range LOX. The protocol:
The ability of compounds to inhibit prototypic LOX was determined using a fluorometric assay. This assay measures the activity of lysyl oxidases by coupling the reaction with horseradish peroxidase-catalyzed […]. The activity assay protocol uses cadaverine as substrate that releases hydrogen peroxide upon transformation by prototypic LOX enzyme present in the sample. Hydrogen peroxide was in turn detected using a red fluorescence substrate for HRP-coupled reactions (Amplex Red Enzyme Assays, Thermo Scientific Fisher). This lead to an increase in fluorescence that can be easily detected at Ex/Em=540/590 nm in a fluorescence microplate
Bovine lysyl oxidase (LOX) was extracted by adapting the methodology from [Kagan et al. 1979 and Borel et al. 2001.] from bovine tendon: Frozen adult bovine tendon was placed in room temperature water to defrost, and then membranes were removed and the remaining tissue cut into 1 cm pieces. The material was first passed through a course mesh meat grinder, and this mince was passed through a fine mesh grinder. The mince was homogenized in 10 v/w of buffer (16 mM sodium phosphate buffer pH 7.8, 400 mM NaCl) using a Waring blender. The homogenate was centrifuged at 15,000×g for 15 min at 4° C. After centrifugation, the supernatant was discarded and the pellets resuspended in 10 volumes of the same buffer. The mixture was blended again and centrifuged with the same settings. This time the pellets were blended in 3 volumes of extraction buffer (16 mM sodium phosphate buffer pH 7.8) and left to incubate at 4° C. for 2 h. After this time, the slurry was centrifuged with the same settings as described above. The supernatant was used in an ultrafiltration step to remove large proteins by size exclusion through a 30 kDalton filter (EMD Millipore). The filtrate was mixed with DEAE Sephadex (GE Healthcare), or passed over a MonoQ FPLC column. After two washes, one in 16 mM sodium phosphate buffer pH 7.8, 380 mM NaCl, and another in 16 mM sodium phosphate buffer pH 7.8, the proteins were eluted with 16 mM sodium phosphate pH 7.8, 10 μM CuSO4, and 4 M urea. Fractions containing Lox activity were collected and stored frozen at −70° C.
Final concentration in the LOX assay is shown in Table 6 below and performed in a total volume of […].
7 μl of freshly prepared reaction buffer were delivered to reaction wells. Compounds were resuspended in 100% DMSO at 10 mM and delivered into buffer using acoustic technology (Echo550; nanoliter range). A 2.85× solution of LOX protein in reaction buffer was prepared (“LOX solution”) and 7 μl of LOX solution was added into the reaction wells. Buffer only was added to column 1 for no protein control. Reactions were incubated for 30 minutes at 37° C. A 3.33× mixture of cadaverine, Amplex Red, and HRP (“Substrate/Detection Mix) was prepared and subsequently 6 μL of the mixture was added to each reaction well. Progress of reactions was monitored for 120 minutes at 37° C. using Clariostar plate reader (ex530-12, ems 600-40). For all activity assays, pan-LOX inhibitor CCT365623 (Tang et al, 2017) and LOXL2/LOXL3 inhibitor PAT-1251 (PharmaKea) were included as standards.
The slope of the linear portion of the progress curve was calculated using Clariostar software. Typical analysis interval was between 20-50 min, but varied between experiments. The background subtracted signals (No protein wells were considered as background) were converted to % activity relative to DMSO controls. Data was analyzed using GraphPad Prism 4 with “sigmoidal dose-response (variable slope)”; 4 parameters with Hill Slope. Constraints: Bottom=Constant equal to 0. Top=Must be less than 120.

pIC50: −log10 of the molar value.

As to `NCc1ccnc(OC[C@@H]2C[C@@H](C3CCCCC3)CN2S(=O)(=O)N2CCOCC2)c1` [Example 239T, trans-(2-((4-Cyclohexyl-1-(morpholinosulfonyl)pyrrolidin-2-yl)methoxy)pyridin-4-yl)methanamine 2,2,2-trifluoroacetate], the pIC50 in test [1] and in test [2] was ≥ 6.30 in each case.

On to `NCc1ccnc(OC[C@@H]2C[C@H](C3CCCCC3)CN(S(=O)(=O)N3CCS(=O)(=O)CC3)C2)c1` (racemic) [Example 235, cis-4-((3-(((4-(Aminomethyl)pyridin-2-yl)oxy)methyl)-5-cyclohexylpiperidin-1-yl)sulfonyl)thiomorpholine 1,1-dioxide 2,2,2-trifluoroacetate], for which the values for the pIC50 in test [1] and in test [2] were 6.00 to 6.30 and ≥ 6.30, respectively.

With `NCc1ccnc(S(=O)(=O)C[C@@H]2C[C@H](c3ccc(F)cc3)CN2S(=O)(=O)N2CCOCC2)c1` (racemic) [Example 204, cis-(2-(((4-(4-fluorophenyl)-1-(morpholinosulfony1)pyrrolidin-2-yl)methyl)sulfonyl)pyridin-4-yl)methanamine 2,2,2-trifluoroacetate], the pIC50 is 4.52 to 6.00 in test [3] and ≥ 6.30 in test [2].

Turning to `NCc1ccnc(OC[C@@H]2C[C@H](c3ccc(F)cc3)CN2S(=O)(=O)N2CCOCC2)c1` (racemic) [Example 212, cis-(2-((4-(4-Fluorophenyl)-1-(morpholinosulfonyl)pyrrolidin-2-yl)methoxy)pyridin-4-yl)methanamine 2,2,2-trifluoroacetate], the pIC50 in test [3] is 4.52 to 6.00; in test [2] it was ≥ 6.30.

Consider `NCc1ccnc(S(=O)(=O)C[C@@H]2C[C@H](c3ccccc3F)CN2S(=O)(=O)N2CCOCC2)c1` (racemic) [Example 203, cis-(2-(((4-(2-fluorophenyl)-1-(morpholinosulfonyl)pyrrolidin-2-yl)methyl)sulfonyl)pyridin-4-yl)methanamine 2,2,2-trifluoroacetate], for which the figures for the pIC50 in test [3] and in test [2] were 4.52 to 6.00 and ≥ 6.30, respectively.

With `CS(=O)(=O)N1C[C@@H](c2ccccc2)C[C@H]1CS(=O)(=O)c1cccc(CN)c1` (racemic) [Example 27, cis-(3-(((1-(Methylsulfonyl)-4-phenylpyrrolidin-2-yl)methyl)sulfonyl)phenyl)methanamine 2,2,2-trifluoroacetate], the pIC50 in test [3] was 4.52 to 6.00; in test [2] it was ≥ 6.30.

As to `NCc1ccc(S(=O)(=O)C[C@@H]2C[C@H](c3ccc(F)cc3)CN2S(=O)(=O)N2CCS(=O)(=O)CC2)s1` (racemic) [Example 210, cis-4-((2-(((5-(Aminomethyl)thiophen-2-yl)sulfonyl)methyl)-4-(4-fluorophenyl)pyrrolidin-1-yl)sulfonyl)thiomorpholine 1,1-dioxide 2,2,2-trifluoroacetate], the pIC50 was 4.52 to 6.00 in test [3] and ≥ 6.30 in test [2].

For the compound `NCc1ccnc(OC[C@@H]2C[C@H](C3CCCCC3)CN2S(=O)(=O)N2CCOCC2)c1` (relative stereo) [Example 239, cis-(2-((4-Cyclohexyl-1-(morpholinosulfonyl)pyrrolidin-2-yl)methoxy)pyridin-4-yl)methanamine 2,2,2-trifluoroacetate], the pIC50 in test [1] and in test [2] was ≥ 6.30 each time.
